Assay results published in patent US10004732B2 (Novartis AG, priority 2014, dated 2018).
Structures can show the parent of a compound that is named as a salt. Where two headings read alike, the source gives them in different places.

Experiments:
[1] = target: T1, PI 3-kinase alpha (Homo sapiens, UniProt P42336); assay: Kinase Glo Luminescent Kinase Assay (Kglo), assay A; type: biochemical; settings: read-out: Assay A PI3Kα IC50
Target sequence in this assay (P42336 whole entry): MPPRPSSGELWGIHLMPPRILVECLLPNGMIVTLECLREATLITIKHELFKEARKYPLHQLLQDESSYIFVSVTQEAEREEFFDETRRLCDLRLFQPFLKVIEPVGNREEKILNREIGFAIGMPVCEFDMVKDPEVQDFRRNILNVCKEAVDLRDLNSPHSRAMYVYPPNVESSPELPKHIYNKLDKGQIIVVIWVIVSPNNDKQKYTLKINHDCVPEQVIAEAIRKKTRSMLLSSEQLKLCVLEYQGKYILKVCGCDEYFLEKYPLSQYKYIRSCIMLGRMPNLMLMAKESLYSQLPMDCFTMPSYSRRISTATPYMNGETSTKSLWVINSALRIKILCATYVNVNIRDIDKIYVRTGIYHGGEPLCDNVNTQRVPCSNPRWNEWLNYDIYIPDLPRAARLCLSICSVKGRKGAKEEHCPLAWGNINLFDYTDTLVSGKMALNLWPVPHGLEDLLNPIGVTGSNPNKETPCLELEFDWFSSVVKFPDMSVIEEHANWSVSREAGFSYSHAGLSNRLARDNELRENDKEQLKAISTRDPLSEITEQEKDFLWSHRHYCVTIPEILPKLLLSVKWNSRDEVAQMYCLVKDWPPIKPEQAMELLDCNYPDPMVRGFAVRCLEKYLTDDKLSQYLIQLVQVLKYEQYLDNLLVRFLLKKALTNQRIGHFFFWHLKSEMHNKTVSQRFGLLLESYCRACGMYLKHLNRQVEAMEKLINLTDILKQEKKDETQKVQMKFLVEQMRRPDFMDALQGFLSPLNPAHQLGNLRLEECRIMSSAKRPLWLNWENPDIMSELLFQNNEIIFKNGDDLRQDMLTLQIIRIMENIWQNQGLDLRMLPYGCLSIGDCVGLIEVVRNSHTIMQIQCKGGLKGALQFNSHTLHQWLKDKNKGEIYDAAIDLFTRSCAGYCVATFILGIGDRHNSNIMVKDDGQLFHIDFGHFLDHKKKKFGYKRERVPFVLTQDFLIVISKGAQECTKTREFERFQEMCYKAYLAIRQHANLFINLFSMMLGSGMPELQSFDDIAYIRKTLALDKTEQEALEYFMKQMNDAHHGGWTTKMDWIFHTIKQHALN

[2] = target: T2, PI 3-kinase beta (Homo sapiens, UniProt P42338); assay: Kinase Glo Luminescent Kinase Assay (Kglo), assay B; type: biochemical; settings: read-out: Assay B PI3Kβ IC50
Target sequence in this assay (P42338 whole entry): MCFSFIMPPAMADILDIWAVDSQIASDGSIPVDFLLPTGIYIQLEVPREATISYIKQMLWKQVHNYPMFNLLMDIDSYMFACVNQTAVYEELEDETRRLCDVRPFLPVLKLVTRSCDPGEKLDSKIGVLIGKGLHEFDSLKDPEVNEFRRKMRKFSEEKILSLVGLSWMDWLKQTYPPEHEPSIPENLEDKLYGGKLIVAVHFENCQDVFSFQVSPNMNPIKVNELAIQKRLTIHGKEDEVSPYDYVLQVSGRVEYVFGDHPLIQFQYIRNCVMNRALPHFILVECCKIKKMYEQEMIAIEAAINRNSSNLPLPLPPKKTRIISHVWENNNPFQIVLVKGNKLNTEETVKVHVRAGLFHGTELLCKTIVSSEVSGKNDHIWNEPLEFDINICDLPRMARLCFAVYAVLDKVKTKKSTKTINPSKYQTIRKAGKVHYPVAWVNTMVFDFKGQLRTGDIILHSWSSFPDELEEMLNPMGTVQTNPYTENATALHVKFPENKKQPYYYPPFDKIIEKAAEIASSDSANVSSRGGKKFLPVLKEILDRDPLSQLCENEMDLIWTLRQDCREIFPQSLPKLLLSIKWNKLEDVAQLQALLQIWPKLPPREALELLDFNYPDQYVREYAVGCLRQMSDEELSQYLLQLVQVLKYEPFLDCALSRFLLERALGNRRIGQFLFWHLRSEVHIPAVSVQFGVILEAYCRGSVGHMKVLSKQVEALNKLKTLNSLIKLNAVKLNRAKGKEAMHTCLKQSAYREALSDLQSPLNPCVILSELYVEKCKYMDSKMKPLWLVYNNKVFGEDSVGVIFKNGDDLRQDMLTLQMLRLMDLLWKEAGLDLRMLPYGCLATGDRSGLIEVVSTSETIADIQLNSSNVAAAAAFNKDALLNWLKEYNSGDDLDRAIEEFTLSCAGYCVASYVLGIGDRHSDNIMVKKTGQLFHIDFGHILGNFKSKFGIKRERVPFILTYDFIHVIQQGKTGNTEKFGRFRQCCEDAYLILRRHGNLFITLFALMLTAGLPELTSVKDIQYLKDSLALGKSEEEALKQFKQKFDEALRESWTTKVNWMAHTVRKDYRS
Target sequence in this assay (P27986 461-568 partner): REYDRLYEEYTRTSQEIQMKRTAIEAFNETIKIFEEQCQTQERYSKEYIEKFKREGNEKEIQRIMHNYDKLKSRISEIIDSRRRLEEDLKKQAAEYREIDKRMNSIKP
Experimental: Kinase Glo Luminescent Kinase Assay (Kglo) for Pb 3-Kinase Alpha (A), Pb 3-Kinase Beta (B), Vps34 (C), Pb 4-Kinase Beta (D)
The Kinase Glo Luminescent Kinase Assay (Promega, Madison/Wis., USA) is a homogeneous HTS method of measuring kinase activity by quantifying the amount of ATP remaining in solution following a kinase reaction.
L-α-phosphatidylinositol (PI), provided as 10 mg/ml solution in methanol, was transferred into a glass tube and dried under a nitrogen beam. It was then resuspended in 3% OctylGlucoside (1-0-n-octyl-beta-D-glucopyranoside) by vortexing and stored at 4° C. 5 μL of a mix of PI/OctylGlucoside with the PI 3-kinase alpha and PI 3-kinase beta subtypes, or Vps34 or PI 4-kinase beta were added. Kinase reactions were started by the addition of 5 μl of an ATP-mix containing in a final volume 10 μL 10 mM TRIS-HCl pH 7.5, 3 mM MgCl2, 50 mM NaCl, 0.05% CHAPS, 1 mM DTT and 1 μM ATP at room temperature.
All fits were performed with the program XLfit4 (ID Business Solutions, Guildford, UK).

[3] = target: Vps34 (Homo sapiens, UniProt Q8NEB9); assay: Kinase Glo Luminescent Kinase Assay (Kglo), assay C; type: biochemical; settings: read-out: Assay C VPS34 IC50
[4] = target: PI 4-kinase beta (Homo sapiens, UniProt Q9UBF8); assay: Kinase Glo Luminescent Kinase Assay (Kglo), assay D; type: biochemical; settings: read-out: Assay D PI4Kβ IC50
[5] = target: T3, PI 3-kinase gamma (Homo sapiens, UniProt P48736); assay: TR-FRET Adapta assay, assay E; type: biochemical; settings: read-out: Assay E PI3Kγ IC50
[6] = target: mTOR (Homo sapiens, UniProt P42345); assay: Lanthascreen kinase binding assay, assay G; settings: read-out: Assay G mTOR IC50
Experimental: Lanthascreen™ Kinase Binding Assay for mTOR (G)
Binding of an inhibitor to the kinase competes for binding with the tracer, resulting in a loss of FRET.
50 nL of compound dilutions were dispensed onto white 384-well small volume polystyrene plate.

[7] = target: T3, PI 3-kinase gamma; assay: Cellular U937 AKT assay K1 (MSD); type: cell-based; settings: U937 cells, K1 format; read-out: Assay K1 PI3Kγ IC50
[8] = target: T3, PI 3-kinase gamma; assay: Cellular U937 AKT assay K2 (HTRF); type: cell-based; settings: U937 cells, K2 format; read-out: Assay K2 PI3Kγ IC50
[9] = test system: IL-8-induced neutrophil shape change in human whole blood; assay: Whole blood neutrophil shape change assay (L); type: cell-based; settings: IL-8, human whole blood, read-out: Assay L WBSC IC50
Experimental: Whole Blood Neutrophil Shape Change Assay (L)
IL-8 was made up to 2 μM stocks in 0.1% bovine serum albumin/PBS and stored at −80° C. On the day IL-8 was diluted in PBS (phosphate buffered saline) 10 minutes before use. IL-8 was used at final concentration of 2 nM and a concentration range from 0.003 to 200 nM for the donor dose response curve.
Assay fixative solution was prepared fresh each day from 10× concentrated CellFIX™ solution diluted 1:10 in sterile distilled water and then 1:4 with PBS. Assay fixative solution was kept on ice prior to use.
A 10× lysis buffer was prepared in advance by dissolving 20.75 g NH4Cl and 2.5 g KHCO3 in 250 ml sterile H2O. This 10× lysis buffer was filtered under sterile conditions and stored for up to two weeks at 4° C. On the day a 1× lysis solution was prepared with sterile distilled H2O and kept on ice prior to use.
The test compounds were prepared as 10 mM stock solutions in 100% DMSO and were stored at 4° C. Once in use for an assay 10 mM stock compounds were thawed and stored at RT protected from light. Compound dilutions were prepared fresh on the day. The first series of dilutions in 100% DMSO were done first thing in the morning. Only once blood had been collected and arrived in laboratory was the next set of dilutions into PBS carried out (1:10 PBS, 10% DMSO). This limited the exposure of diluted compound to plastic and made sure the exposure timing was consistent between assays.
Compound dilutions in 100% DMSO were prepared as described previously. Human whole blood was collected in K2 EDTA Vacutainers. Once blood was in the laboratory, compound dilutions into PBS were carried out as described previously and depicted in Table 1.
The outer wells of the deep well assay plate were filled with 1200 μl of sterile distilled H2O in an effort to limit edge effects (rows A1-H1, A1-A12, A12-H12).
An IL-8 dose response was determined for each blood donor examined, to monitor the donor response to IL-8. At this step in assay preparation for the IL-8 dose response samples 10 μl of PBS was added to designated wells. In addition the assay window without DMSO was also assessed each day. For such samples at this step in assay preparation 10 μl of PBS was added in the place of 10% DMSO.
Lids were placed on the 96 well plates and samples were incubated for 15 minutes at 37° C. in a water-bath.
Following the compound pre-incubation 10× final IL-8 was added to appropriate wells (10 μl of 20 nM working stock IL-8, final IL-8 concentration in blood=2 nM) and 10 μl of PBS was added to the un-stimulated controls. 10× final dose response range IL-8 was also added to designated wells (final concentration range on assay plate was 200 nM to 0.0005 nM, 1:5 serial dilution in PBS). The IL-8 and PBS were added to appropriate wells across all assay plates in the same sequence as the blood to compound addition. […] Samples were incubated for 5 minutes at 37° C. in a water-bath. Following the incubation sample plates were transferred to ice where 250 μl of chilled Assay Fixative Buffer was added promptly to all wells.
Samples were incubated on ice for 7 minutes (no mixing). […] Once added samples were mixed once and incubated on ice for 30 minutes to achieve uniform red blood cells lysis. After lysis, 200 μl of sample was transferred to a 96 well microplate on ice. […] Granulocytes were identified based on differential side scatter (SSC) and forward scatter (FSC) characteristics.

[10] = target: T4, PI 3-kinase delta (Homo sapiens, UniProt O00329); assay: TR-FRET Adapta assay, assay F; settings: read-out: Assay F PI3Kδ IC50
Experimental: TR-FRET Adapta Assay for PI 3-Kinase Gamma (E), PI 3-Kinase Delta (F)
The TR-FRET Adapta™ Universal Kinase Assay Kit was purchased from Invitrogen Corporation (Carlsbad/CA, USA) (Cat. No. PV5099).
PIK3CD substrate phosphatidylinositol (PI) was obtained from Invitrogen (vesicules consisting of 2 mM phosphatidylinositol (PI) in 50 mM HEPES pH7.5; Cat. No. PV5371). PIK3CG substrate phosphatidylinositol-4,5-bisphosphate (PIP(4,5)2 was obtained from Invitrogen (PIP2:PS large unilamellar vesicules consisting of 1 mM PIP2: 19 mM PS in 50 mM HEPES pH7.5, 3 mM MgCl2, 1 mM EGTA; Cat. No. PV5100).
Time-Resolved Fluorescence Resonance Energy Transfer (TR-FRET) is a technology based on energy transfer between two adjacent dyes, from an excited electron in one dye (the donor) to an electron of an adjacent dye (the acceptor) through resonance, then released as a photon. This energy transfer is detected by an increase in the fluorescence emission of the acceptor, and a decrease in the fluorescence emission of the donor. TR-FRET assays for protein kinases use a long-lifetime lanthanide Terbium or Europium chelates as the donor species which overcome interference from compound autofluorescence or light scatter from precipitated compounds, by introducing a delay after excitation by a flashlamp excitation source. Results are often expressed as a ratio of the intensities of the acceptor and donor fluorophores. The ratiometric nature of such a value corrects for differences in assay volumes between wells, as well as corrects for quenching effects due to colored compounds. The Adapta™ assay can be divided into two phases: a kinase reaction phase and an ADP detection phase. In the kinase reaction phase, all kinase reaction components are added to the well and the reaction is allowed to incubate for a set period of time specific for each kinase. […] In the presence of an inhibitor, the amount of ADP formed by the kinase reaction is reduced, and the resulting intact antibody-tracer interaction maintains a high TR-FRET signal.
50 nL of compound dilutions were dispensed onto white 384-well small volume polystyrene plate. Then 5 μL of either PI 3-kinase gamma or PI 3-kinase delta and lipid substrate (PI or PIP2:PS) followed by 5 μL of ATP (final assay volume 10 μL) are incubated at RT. The standard reaction buffer for the Adapta™ TR-FRET assay contained 10 mM Tris-HCl pH 7.5, 3 mM MgCl2, 50 mM NaCl, 1 mM DTT, 0.05% CHAPS 3-[(3-cholamidopropyl)dimethylammonio]-1-propanesulfonate).
Data are analyzed using Excel fit software or Graphpad Prism. IC50 values were derived by fitting a sigmoidal dose-response curve to a plot of assay readout over inhibitor concentration. All fits were performed with the program XLfit4 (ID Business Solutions, Guildford, UK). […] All fits were performed with the program XLfit4 (ID Business Solutions, Guildford, UK).

[11] = Microsomal clearance assay (M); settings: intrinsic clearance in rat liver microsomes
Experimental: The experiments were performed in 96-well glass plates at 37° C. on an automated Tecan EVO platform. Test compounds at a concentration of 10 mM in pure DMSO were diluted 1:1000 in water to 10 μM. […] Reactions were initiated by the addition of 150 μL of a cofactor solution containing 2 mM NADPH.

[12] = target: T1, PI 3-kinase alpha; assay: Cellular assay H1, p-Akt (S473) in Rat-1 cells, Surefire format; type: cell-based; settings: non-asterisked data: version H1 (Surefire format), Rat-1 cells; read-out: Assay H PI3Kα IC50
Target sequence in this assay (P42336 whole entry): as the sequence (P42336 whole entry) above
Target sequence in this assay (Q63787 whole entry partner): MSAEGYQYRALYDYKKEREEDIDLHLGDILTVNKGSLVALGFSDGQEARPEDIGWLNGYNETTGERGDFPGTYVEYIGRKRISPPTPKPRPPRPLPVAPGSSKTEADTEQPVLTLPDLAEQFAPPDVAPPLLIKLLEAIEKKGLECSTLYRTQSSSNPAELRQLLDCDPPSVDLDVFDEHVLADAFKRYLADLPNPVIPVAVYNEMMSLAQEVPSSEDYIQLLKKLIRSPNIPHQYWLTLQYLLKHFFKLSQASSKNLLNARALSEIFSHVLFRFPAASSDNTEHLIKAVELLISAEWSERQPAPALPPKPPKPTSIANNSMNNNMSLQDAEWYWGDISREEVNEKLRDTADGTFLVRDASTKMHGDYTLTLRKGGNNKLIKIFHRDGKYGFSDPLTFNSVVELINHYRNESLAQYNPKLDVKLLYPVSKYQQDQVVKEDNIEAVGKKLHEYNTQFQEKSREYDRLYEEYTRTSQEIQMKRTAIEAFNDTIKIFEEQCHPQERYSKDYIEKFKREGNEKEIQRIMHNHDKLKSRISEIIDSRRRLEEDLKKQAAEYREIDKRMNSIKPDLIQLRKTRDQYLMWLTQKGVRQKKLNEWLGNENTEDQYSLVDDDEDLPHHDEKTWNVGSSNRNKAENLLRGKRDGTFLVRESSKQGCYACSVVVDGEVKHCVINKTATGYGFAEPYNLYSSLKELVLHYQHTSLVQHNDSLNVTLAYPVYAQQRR

[13] = target: T2, PI 3-kinase beta; assay: Cellular assay I1, p-Akt (S473) in Rat-1 cells, Surefire format; type: cell-based; settings: non-asterisked data: version I1 (Surefire format), Rat-1 cells; read-out: Assay I PI3Kβ IC50
Target sequence in this assay (P42338 whole entry): as the sequence (P42338 whole entry) above
Target sequence in this assay (Q63787 whole entry partner): as the sequence (Q63787 whole entry partner) above
Text: Cellular Assays for PI 3-Kinase Alpha (H1), Beta (I1) and Delta (J1): Surefire Format
AlphaScreen (Amplified Luminescent Proximity Homogeneous Assay, ALPHA, Perkin Elmer) is a non-radioactive bead-based proximity assay technology to study biomolecular interactions in a homogenous microtiter plate format. The brand name SureFire denotes AlphaScreen assays that are adapted to quantify the phosphorylation of endogenous cellular proteins in cell lysates, by using matched antibody pairs, which consist of an anti-phospho-kinase and an anti-kinase antibody. The assay allows characterization of kinase signaling in cells as well as measurement of kinase inhibitor effects.
Using Rat-1 cells stably expressing myr-HA-tagged versions of the human PI3Kdelta, PI3Kalpha, or PI3Kbeta p110 catalytic subunit isoforms, the assay was developed as a two-plate protocol in a 384-well format.
For compound testing, the cells were seeded at a density of 4000 (Rat-1_PI3Kdelta), 7500 (Rat-1_PI3Kalpha), or 6200 (Rat-1_PI3Kbeta) cells in 20 μl complete growth medium into cell culture treated 384-well plates and were grown at 37° C./5% CO2/90% humidity for 24 h. Shortly before compound transfer, the complete medium was removed, 30 μl assay buffer (DMEM high glucose, 1×MEM NEAA, 10 mM HEPES, 2 mM L-glutamine, 0.1% (w/v) BSA) was added and 10 μl of the compound predilutions were transferred to the cells.

[14] = target: T4, PI 3-kinase delta; assay: Cellular assay J1, p-Akt (S473) in Rat-1 cells, Surefire format; type: cell-based; settings: non-asterisked data: version J1 (Surefire format), Rat-1 cells; read-out: Assay J PI3Kδ IC50

Chain of PI 4-kinase beta (Q9UBF8 whole entry): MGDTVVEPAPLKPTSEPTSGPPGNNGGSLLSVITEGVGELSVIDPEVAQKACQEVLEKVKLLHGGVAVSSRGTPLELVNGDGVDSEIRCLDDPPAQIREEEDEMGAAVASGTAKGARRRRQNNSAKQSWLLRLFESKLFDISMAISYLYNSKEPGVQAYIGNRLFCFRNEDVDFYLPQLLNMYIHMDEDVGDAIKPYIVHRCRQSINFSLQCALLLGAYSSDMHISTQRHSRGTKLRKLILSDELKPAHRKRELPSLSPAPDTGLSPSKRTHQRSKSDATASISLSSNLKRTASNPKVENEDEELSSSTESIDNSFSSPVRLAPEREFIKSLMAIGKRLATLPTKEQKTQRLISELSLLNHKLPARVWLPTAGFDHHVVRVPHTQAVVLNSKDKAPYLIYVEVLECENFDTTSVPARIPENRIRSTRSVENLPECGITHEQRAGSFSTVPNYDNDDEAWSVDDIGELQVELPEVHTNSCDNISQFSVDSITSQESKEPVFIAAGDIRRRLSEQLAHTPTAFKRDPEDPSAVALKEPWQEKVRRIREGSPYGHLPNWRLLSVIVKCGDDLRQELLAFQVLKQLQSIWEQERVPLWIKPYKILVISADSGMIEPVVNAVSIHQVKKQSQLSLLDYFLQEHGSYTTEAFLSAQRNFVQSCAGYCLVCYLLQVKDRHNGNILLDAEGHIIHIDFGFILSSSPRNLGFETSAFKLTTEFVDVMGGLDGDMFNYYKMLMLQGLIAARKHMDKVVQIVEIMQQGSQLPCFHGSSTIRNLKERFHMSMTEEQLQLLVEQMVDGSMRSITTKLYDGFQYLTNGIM
Chain of Vps34 (Q8NEB9 whole entry, species assumed): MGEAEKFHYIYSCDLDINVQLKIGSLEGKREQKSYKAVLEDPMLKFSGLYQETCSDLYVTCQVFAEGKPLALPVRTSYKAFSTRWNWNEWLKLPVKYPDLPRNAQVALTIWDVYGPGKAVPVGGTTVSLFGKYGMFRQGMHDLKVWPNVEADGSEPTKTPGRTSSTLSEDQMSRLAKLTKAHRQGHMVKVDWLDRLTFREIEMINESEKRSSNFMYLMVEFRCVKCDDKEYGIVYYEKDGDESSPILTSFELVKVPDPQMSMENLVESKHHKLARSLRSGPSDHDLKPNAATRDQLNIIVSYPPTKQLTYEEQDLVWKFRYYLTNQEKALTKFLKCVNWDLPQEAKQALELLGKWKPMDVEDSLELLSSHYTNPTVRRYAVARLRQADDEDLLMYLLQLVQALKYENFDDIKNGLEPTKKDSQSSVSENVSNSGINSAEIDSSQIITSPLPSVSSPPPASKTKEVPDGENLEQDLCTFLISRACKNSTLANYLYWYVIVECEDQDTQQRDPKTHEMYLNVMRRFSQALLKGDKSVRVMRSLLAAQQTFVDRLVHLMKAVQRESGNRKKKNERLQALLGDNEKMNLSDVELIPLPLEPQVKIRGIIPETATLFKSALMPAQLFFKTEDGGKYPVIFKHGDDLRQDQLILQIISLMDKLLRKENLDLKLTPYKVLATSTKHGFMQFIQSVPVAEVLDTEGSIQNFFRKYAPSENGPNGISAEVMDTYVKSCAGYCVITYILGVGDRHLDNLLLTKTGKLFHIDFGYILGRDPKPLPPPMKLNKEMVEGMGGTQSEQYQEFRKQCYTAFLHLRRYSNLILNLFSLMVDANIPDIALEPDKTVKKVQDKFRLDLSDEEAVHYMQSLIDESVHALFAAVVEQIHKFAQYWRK

Row | SMILES | IC50 [1] [nM] | IC50 [2] [nM] | IC50 [3] [nM] | IC50 [4] [nM] | IC50 [5] [nM] | IC50 [6] [nM] | IC50 [7] [nM] | IC50 [8] [nM] | IC50 ([9]; Homo sapiens, Neutrophil) [nM] | IC50 [10] [nM] | Assay M RLM CI(int) [11] [µL/min/mg] | IC50 [12] [nM] | IC50 [13] [nM] | IC50 [14] [nM] | IC50 [9] [nM]
1 | Cc1ccc(S(=O)(=O)N2CC(F)C2)cc1-c1cnc(N)c(-n2cncn2)n1 [Example 127.5] | 400 | 3100 | > 10000 | > 10000 | 100 | 1800 | – | 419 | 9680 | 3900 | 72 | – | – | – | –
2 | Cc1ccc(S(=O)(=O)N2CC(CO)C2)cc1-c1cnc(N)c(-n2cncn2)n1 [Example 127.45] | 420 | 6200 | > 9100 | 3400 | 60 | > 9100 | – | 323 | 2640 | 1500 | 26 | 6110 | 9050 | 7270 | –
3 | Cc1ccc(S(=O)(=O)NOC(C)(C)C)cc1-c1cnc(N)c(-n2cncn2)n1 [Example 112.1, 3-(5-Amino-6-(1H-1,2,4-triazol-1-yl)pyrazin-2-yl)-N-(tert-butoxy)-4-methylbenzenesulfonamide] | 290 | 1700 | > 10000 | 1800 | 33 | 6000 | 91 | 63 | 1330 | 210 | – | 800 | 1470 | 380 | –
4 | Cc1ccc(S(=O)(=O)NCCN)cc1-c1cnc(N)c(-n2cncn2)n1 [Example 33, N-(2-Amino-ethyl)-3-(5-amino-6-[1,2,4]triazol-1-yl-pyrazin-2-yl)-4-methyl-benzenesulfonamide trifluoroacetic acid salt] | 210 | 380 | > 10000 | 910 | 47 | 1500 | 1980 | 622 | 742 | 780 | 12 | – | – | – | –
5 | Cc1ccc(S(=O)(=O)NCC2(CO)COC2)cc1-c1cnc(N)c(-c2cn(C)nc2C)n1 [Example 128, 3-(5-Amino-6-(1,3-dimethyl-1H-pyrazol-4-yl)pyrazin-2-yl)-N-((3-(hydroxymethyl)oxetan-3-yl)methyl)-4-methylbenzenesulfonamide] | 150 | 500 | > 10000 | 6800 | 14 | – | 209 | 201 | 2990 | 100 | 22 | > 10000 | 9910 | > 10000 | –
6 | Cc1ccc(S(=O)(=O)NC[C@H]2COCCN2)cc1-c1cnc(N)c(-c2cn(C)nc2C)n1 [Example 128.7, (S)-3-(5-Amino-6-(1,3-dimethyl-1H-pyrazol-4-yl)pyrazin-2-yl)-4-methyl-N-(morpholin-3-ylmethyl)benzenesulfonamide] | 220 | 1900 | > 10000 | > 10000 | 79 | – | 249 | 117 | 826 | 690 | 20 | > 10000 | > 10000 | > 10000 | –
7 | Cc1ccc(S(=O)(=O)NCC[C@@H](O)C(F)(F)F)cc1-c1cnc(N)c(-c2cn(C)nc2C)n1 (single isomer, unassigned) [Example 52b, (R)-3-(5-Amino-6-(1,3-dimethyl-1H-pyrazol-4-yl)pyrazin-2-yl)-4-methyl-N-(4,4,4-trifluoro-3-hydroxybutyl)benzenesulfonamide or (S)-3-(5-Amino-6-(1,3-dimethyl-1H-pyrazol-4-yl)pyrazin-2-yl)-4-methyl-N-(4,4,4-trifluoro-3-hydroxybutyl)benzenesulfonamide] | 230 | – | > 10000 | 4200 | 26 | – | 60 | 337 | – | – | 43 | – | – | – | 550
8 | Cc1ccc(S(=O)(=O)NCCC2(O)CCCCC2)cc1-c1cnc(N)c(-n2cncn2)n1 [Example 127.37] | 650 | 1400 | > 10000 | 8000 | 34 | > 10000 | 230 | 408 | 6220 | 1500 | – | – | – | – | –

Further molecules by falling IC50 [1], results first:

Row | IC50 [1] [nM] | IC50 [2] [nM] | IC50 [3] [nM] | IC50 [4] [nM] | IC50 [5] [nM] | IC50 [6] [nM] | IC50 [7] [nM] | IC50 [8] [nM] | IC50 ([9]; Homo sapiens, Neutrophil) [nM] | IC50 [10] [nM] | Assay M RLM CI(int) [11] [µL/min/mg] | IC50 [12] [nM] | IC50 [13] [nM] | IC50 [14] [nM] | SMILES | IC50 [9] [nM]
9 | 1300 | > 9100 | > 9100 | 6900 | 73 | > 9100 | 708 | 546 | 3770 | 720 | 34 | – | – | – | Cc1ccc(S(=O)(=O)N2CC(C)(O)C2)cc1-c1cnc(N)c(-n2cncn2)n1 [Example 127.46] | –
10 | 590 | 1800 | > 10000 | > 10000 | 21 | – | 751 | 421 | 1670 | 100 | <3.4 | > 3000 | > 10000 | > 10000 | Cc1ccc(S(=O)(=O)NCC2CNCCO2)cc1-c1cnc(N)c(-c2cn(C)nc2C)n1 (centres unmarked) [Example 128.8, 3-(5-amino-6-(1,3-dimethyl-1H-pyrazol-4-yl)pyrazin-2-yl)-4-methyl-N-(morpholin-2-ylmethyl)benzenesulfonamide] | –
11 | 320 | 1000 | > 10000 | 1700 | 73 | 9400 | 850 | 84 | 3560 | 850 | 375 | – | – | – | Cc1ccc(S(=O)(=O)N2CCC(F)C2)cc1-c1cnc(N)c(-n2cncn2)n1 (centres unmarked) [Example 127.2] | –
12 | 220 | 820 | > 10000 | > 10000 | 26 | > 10000 | 145 | 331 | 730 | 450 | 24 | – | – | – | Cc1ccc(S(=O)(=O)NCC(C)(C)O)cc1-c1cnc(N)c(-c2cnn(C)c2C)n1 [Example 46, 3-(5-Amino-6-(1,5-dimethyl-1H-pyrazol-4-yl)pyrazin-2-yl)-N-(2-hydroxy-2-methylpropyl)-4-methylbenzenesulfonamide] | –
13 | 190 | 7700 | > 10000 | > 10000 | 190 | – | – | 193 | 2180 | 300 | 20 | > 10000 | > 10000 | > 10000 | Cc1ccc(S(=O)(=O)NC[C@@H]2COCCN2)cc1-c1cnc(N)c(-c2cn(C)nc2C)n1 [Example 128.6, (R)-3-(5-Amino-6-(1,3-dimethyl-1H-pyrazol-4-yl)pyrazin-2-yl)-4-methyl-N-(morpholin-3-ylmethyl)benzenesulfonamide] | –
14 | 90 | 1200 | > 10000 | > 10000 | 21 | 7900 | 41 | 65 | 497 | 120 | 73 | – | – | – | Cc1ccc(S(=O)(=O)NCCC(C)(C)O)cc1-c1cnc(N)c(-c2cnn(C)n2)n1 [Example 85, 3-(5-Amino-6-(2-methyl-2H-1,2,3-triazol-4-yl)pyrazin-2-yl)-N-(3-hydroxy-3-methylbutyl)-4-methylbenzenesulfonamide] | –
15 | 40 | 290 | 1600 | 1200 | 5 | – | 12 | 26 | 79 | 130 | 43 | – | – | – | Cc1ncc(-c2nc(-c3cc(S(=O)(=O)NCC4(O)COC4)ccc3C)cnc2N)s1 [Example 45.11, 3-(5-Amino-6-(2-methylthiazol-5-yl)pyrazin-2-yl)-N-((3-hydroxyoxetan-3-yl)methyl)-4-methylbenzenesulfonamide] | –
